The test system of this assay is Polio 2. In words: microbe, parasite or virus in culture. Type of assay: cell-based, polioviruses. The conditions noted are these: HeLa, read-out: MIC (Polio 2).

≈ marks a conversion by molar mass, not a printed value.

Consider `Cc1cc(CCCCCOc2ccc(-c3nccs3)cc2)on1` [Example 20, 3-Methyl-5-{5-[4-(2-thiazolyl)phenoxy]pentyl}-isoxazole], for which the MIC came to 0.06 µg/mL (≈ 0.183 µM).

For the molecule `Cc1cc(CCCCCOc2ccc(-c3nc(C)c(C)s3)cc2)on1` [Example 3, 3-Methyl-5-{5-[4-(4,5-dimethyl-2-thiazolyl)phenoxy]-pentyl}isoxazole], the MIC turned out to be 1 µg/mL (≈ 2.81 µM).

Turning to `Cc1cc(CCCCCOc2ccc(-c3nc4ccccc4o3)cc2)on1` [Example 6, 5-{5-[4-(2-Benzoxazolyl)phenoxy]pentyl}-3-methylisoxazole], the MIC was determined as 0.9 µg/mL (≈ 2.48 µM).

For `Cc1cc(CCCCCOc2c(Cl)cc(-c3cccs3)cc2Cl)on1` [Example 1(c), 5-{5-[2,6-Dichloro-4-(2-thienyl)phenoxy]pentyl}-3-methylisoxazole], the MIC is 2.5 µg/mL (≈ 6.31 µM).

As for `Cc1cc(CCCCCOc2c(Cl)cc(-c3nnn(C)n3)cc2Cl)on1` [23 (1st compd.), 5-{5-[2,6-dichloro-4-(2-methyl-2H-tetrazol-5-yl)phenoxy]pentyl}-3-methylisoxazole], the MIC was 2.9 µg/mL (≈ 7.32 µM).

For the molecule `Cc1cc(CCCCCOc2c(Cl)cc(-c3ccc(C)s3)cc2Cl)on1` [10(b), 5-{5-[2,6-Dichloro-4-(5-methyl-2-thienyl)phenoxy]pentyl}-3-methylisoxazole], the MIC amounted to 4.4 µg/mL (≈ 10.7 µM).

Regarding `Cc1cc(CCCCCOc2ccc(-c3cccs3)cc2)on1` [Example 2, 3-Methyl-5-{5-(4-(2-thienyl)phenoxy]pentyl}-isoxazole], the MIC stood at 0.02 µg/mL (≈ 0.0611 µM).

The values above are taken from patent EP0207453B1 (priority 1985, dated 1987).
